In this test the test system is gastric secretion. Put plainly: TEST II: pentagastrin-stimulated gastric secretion in pylorus-ligated rats. As to conditions: male rats, i.m., 100 μg/kg pentagastrin s.c., 30 mins; dose for 50% inhibition vs untreated controls. The class given is in vivo, rat. The protocol: Male rats (220-280 g) are kept in the laboratory in individual cages for several days (14 hours light/day) with 48 hours fasting (but free access to water) immediately prior to the experiment. At the start of the experiment the pylorus is ligated under ether anaesthesia and 100 μg/kg pentagastrin are injected s.c. to stimulate gastric secretion. The test compounds are injected simultaneously i.m. 30 mins. later the animals are sacrificed, the volume of gastric juice measured and the acid concentration estimated (titration with thymol blue). The acid output is calculated and the percent inhibition estimated in relation to untreated controls.

Turning to `C[C@H](N)C(=O)NCC(=O)N[C@H]1CSSC[C@@H](C(=O)O)NC(=O)[C@H](CO)NC(=O)[C@H]([C@@H](C)O)NC(=O)[C@H](Cc2ccccc2)NC(=O)[C@H]([C@@H](C)O)NC(=O)[C@H](CCCCN)NC(=O)[C@H](Cc2c[nH]c3ccccc23)NC(=O)[C@H](Cc2ccccc2)NC(=O)[C@H](Cc2ccccc2)NC(=O)[C@H](CC(N)=O)NC(=O)[C@H](CCCCN)NC1=O` [somatostatin], the “ID50 in TEST II for acid concentration” value was found to be 0.035 mg/kg.

Values taken from patent US4435385A, “N-Acyl-polypeptides and processes for the production thereof” (Sandoz Ltd., priority 1981, dated 1984).
